The source of these data is patent US7893197B2, “Relaxin-3 chimeric polypeptides and their preparation and use” (Janssen Pharmaceutica N.V., priority 2005, dated 2011).

Ends that are not written are not given here.

Assay [1] concerns [125I]-R3/I5 binding sites (GPCR135) in rat brain. The assay can be described thus: Quantitative receptor autoradiography, inhibition of [125I]-R3/I5 binding on rat brain sections. The note with it: 7 pM [125I]-R3/I5; all regions investigated. The method, then: (§1) Rats were asphyxiated by carbon dioxide. Brains were immediately removed from the skull and rapidly frozen in dry-ice. Twenty-micron-thick frontal sections were cut using a Cryostat-microtome (Microm HM505E, Mikron, San Diego, Calif.) and thaw-mounted on adhesive microscope slides (Superfrost^+ Plus, VWR). The sections were kept at −70° C. until use. The sectioning protocol for the regional distribution study included series of coronal sections covering the entire brain.
Sections were thawed and dried under a cold air stream and then pre-incubated for 15 min. at room temperature in incubation buffer (20 mM HEPES, pH 7.4, 120 mM NaCl2, 0.22 mM KH2PO4, 1.3 mM CaCl2, 0.8 mM MgSO4) by immersing sections in a 400 ml jar. Sections were dried again under a cold air stream and incubated for 60 min. with 7 pM [^125I]-R3/I5 (specific activity, 2200 Ci/mmole) in incubation buffer containing 0.5% BSA and protease inhibitor cocktail. […] Nonspecific binding was determined in the presence of 100 nM of human R3. After incubation, the excess radioligand was washed off by immersing the slides in the jar containing incubation buffer at 4° C. (3 times 10 min.) followed by a quick immersion in water. Sections were dried and exposed to Fujifilm Imaging plates (BAS-MS 2025) for 48 hrs. […]

Assay [2] deals with GPCR135 binding sites in rat brain. The assay can be described thus: Receptor autoradiography, distribution of [125I]R3/I5 binding sites in rat brain. Also noted: key: −: not detected; +: low density; ++: moderate density; +++: high density. The following applies: 7 pM, n = 3. The method, then:
as §1
Sections were thawed and dried under a cold air stream and then pre-incubated for 15 min. at room temperature in incubation buffer (20 mM HEPES, pH 7.4, 120 mM NaCl2, 0.22 mM KH2PO4, 1.3 mM CaCl2, 0.8 mM MgSO4) by immersing sections in a 400 ml jar. Sections were dried again under a cold air stream and incubated for 60 min. with 7 pM [^125I]-R3/I5 (specific activity, 2200 Ci/mmole) in incubation buffer containing 0.5% BSA and protease inhibitor cocktail. […] Nonspecific binding was determined in the presence of 100 nM of human R3. After incubation, the excess radioligand was washed off by immersing the slides in the jar containing incubation buffer at 4° C. (3 times 10 min.) followed by a quick immersion in water. Sections were dried and exposed to Fujifilm Imaging plates (BAS-MS 2025) for 48 hrs. The imaging plates were scanned using the Fuji Bio-Imaging Analyzer System (BAS-5000, Fuji Medical System, CT) and visualized using ImageGauge V3.12 software (Fuji Medical System, CT).
Cresyl-violet staining was performed on adjacent sections and the regions were identified using the rat brain atlas of Paxinos and Watson (Paxinos et al., 1998, The Rat Brain in Stereotaxic Coordinates, New York, Academic Press (publisher)). For illustration purposes, sections were exposed to autoradiography film ((Kodak Omat AR, Rochester N.Y.). After a 4-week exposure, they were automatically developed and fixed in a Konica SRY-101A machine (Konica Medical Corp., Wayne N.J.). Adobe Photoshop 7.0 and Illustrator 9.0 were used for preparation of the figures.

The target of a further assay is T1, LGR7 (Homo sapiens, UniProt Q9HBX9).
T1 construct: Human LGR7 cDNA containing the complete coding region was PCR amplified; expressed in transfected cells
T1 sequence (Q9HBX9 1-757): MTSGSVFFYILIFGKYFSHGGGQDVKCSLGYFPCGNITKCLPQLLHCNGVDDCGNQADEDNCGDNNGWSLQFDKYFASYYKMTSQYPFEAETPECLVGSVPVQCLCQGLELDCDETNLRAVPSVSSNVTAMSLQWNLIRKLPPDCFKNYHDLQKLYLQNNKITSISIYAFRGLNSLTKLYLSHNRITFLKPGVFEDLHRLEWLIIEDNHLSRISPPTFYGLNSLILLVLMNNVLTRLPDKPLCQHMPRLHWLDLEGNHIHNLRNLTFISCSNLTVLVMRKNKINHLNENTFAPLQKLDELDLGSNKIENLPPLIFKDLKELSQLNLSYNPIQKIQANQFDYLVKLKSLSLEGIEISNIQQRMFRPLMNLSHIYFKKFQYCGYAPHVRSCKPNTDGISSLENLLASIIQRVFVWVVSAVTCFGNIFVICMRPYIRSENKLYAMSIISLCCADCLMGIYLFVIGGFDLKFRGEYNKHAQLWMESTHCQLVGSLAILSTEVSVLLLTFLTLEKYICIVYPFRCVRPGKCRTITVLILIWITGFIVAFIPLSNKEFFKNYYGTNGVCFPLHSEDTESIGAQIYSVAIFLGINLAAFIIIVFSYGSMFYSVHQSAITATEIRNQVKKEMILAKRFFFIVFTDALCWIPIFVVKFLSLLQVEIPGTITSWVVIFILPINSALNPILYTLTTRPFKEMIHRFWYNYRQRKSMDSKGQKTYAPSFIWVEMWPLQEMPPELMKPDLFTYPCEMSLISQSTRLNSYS
Description: Binding of radioligands to COS-7 cells transfected with LGR7. The following applies: radioligand 100 pM. The method, then: (§2) FIGS. 5A-5D illustrate a comparative analysis of the binding specificities of [^125I]-relaxin-3 and [^125I]-R3/I5 for GPCR135 and LGR7. COS-7 cells in 6-well culture dishes were transfected with human GPCR135 and LGR7, respectively. Mock transfected COS-7 cells were used as the negative controls. [^125I]-relaxin-3 (FIG. 5A) or [^125I]-R3/I5 (FIG. 5B) was added to cells at a final concentration of 100 pM either in the absence or presence of 1 uM of unlabeled relaxin-3 to determine total binding and non-specific binding, respectively. FIG. 5C depicts an autoradiogram of [^125]-relaxin-3 binding in rat brain sagittal section. FIG. 5D depicts an autoradiogram of non-specific binding of [^125]-relaxin-3 as determined in the presence of 100 nM of unlabeled relaxin-3. FIG. 5E depicts an autoradiogram of [^125]-R3/I5 binding in rat brain sagittal section. […] binding of [^125]-R3/I5 as determined in the presence of 100 nM of unlabeled relaxin-3.

A further assay deals with T2, GPCR135 (Homo sapiens, UniProt Q9NSD7).
T2 construct: expressed in transfected cells
T2 sequence (Q9NSD7 1-469): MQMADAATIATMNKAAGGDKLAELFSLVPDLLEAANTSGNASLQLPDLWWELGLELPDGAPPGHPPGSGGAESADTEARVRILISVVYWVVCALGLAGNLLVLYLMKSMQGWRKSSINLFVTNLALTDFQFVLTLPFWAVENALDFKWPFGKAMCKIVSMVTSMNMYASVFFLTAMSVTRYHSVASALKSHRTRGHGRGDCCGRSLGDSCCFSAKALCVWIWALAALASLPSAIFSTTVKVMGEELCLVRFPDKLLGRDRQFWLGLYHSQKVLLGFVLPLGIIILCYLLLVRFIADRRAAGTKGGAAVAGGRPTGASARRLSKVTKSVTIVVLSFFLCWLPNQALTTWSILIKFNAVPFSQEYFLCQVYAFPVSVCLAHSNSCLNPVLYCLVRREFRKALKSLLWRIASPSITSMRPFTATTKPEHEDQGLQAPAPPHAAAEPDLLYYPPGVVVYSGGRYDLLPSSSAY
The assay can be described thus: Binding of radioligands to COS-7 cells transfected with GPCR135. The method, then:
as §2

Chain of GPCR135 binding sites in rat brain (as listed by the source): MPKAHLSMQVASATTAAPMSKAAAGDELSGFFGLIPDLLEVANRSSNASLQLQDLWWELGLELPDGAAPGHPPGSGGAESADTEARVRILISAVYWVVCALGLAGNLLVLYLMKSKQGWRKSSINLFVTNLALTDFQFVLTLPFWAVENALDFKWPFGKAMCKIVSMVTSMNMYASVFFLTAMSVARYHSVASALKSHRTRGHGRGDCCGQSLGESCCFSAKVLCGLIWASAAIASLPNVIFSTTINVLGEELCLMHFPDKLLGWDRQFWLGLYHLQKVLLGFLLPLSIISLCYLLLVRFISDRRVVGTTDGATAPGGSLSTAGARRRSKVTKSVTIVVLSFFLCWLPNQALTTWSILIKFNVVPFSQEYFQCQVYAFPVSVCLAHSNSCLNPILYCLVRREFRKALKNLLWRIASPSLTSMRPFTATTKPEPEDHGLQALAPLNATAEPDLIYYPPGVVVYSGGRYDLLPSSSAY
Chain of [125I]-R3/I5 binding sites (GPCR135) in rat brain (as listed by the source): as above

On to “Relaxin: human relaxin (R1) used as competitor in Example 6 (KWKDDVIKLCGRELVRAQIAICGMSTWSRPYVALFEKCCLIGCTKRSLAKYC)”, for which the “displacement of [125I]-R3/I5 binding sites, in words” value in assay [1] is “did not displace any significant amount of [^125I]-R3/I5 binding sites at concentrations of up to 100 nM”.
With “[^125I]-R3/I5: radioiodinated R3/I5 chimera used as tracer (RAAPYGVRLCGREFIRAVIFTCGGSRWQDLQTLCCTDGCSMTDLSALC; ends and bridges not checked; also: radioiodinated (125I), site not given here)”, the “[125I]R3/I5 binding sites, density” value in assay [2] (Amygdaloid body: Amygdalohippocampal area) is “+++”; in assay [2] (Amygdaloid body: Bed nucleus stria terminalis), “++”; in assay [2] (Amygdaloid body: Central nucleus), “++”; in assay [2] (Amygdaloid body: Lateral nucleus), “++”; in assay [2] (Amygdaloid body: Medial nucleus), “++”; in assay [2] (Brain stem: Dorsal raphe, dorsal part), “+”. Also, the “[125I]R3/I5 binding sites, density” value in assay [2] (Brain stem: Inferior colliculus) is “++”; in assay [2] (Brain stem: Interpeduncular nucleus), “+++”; in assay [2] (Brain stem: Nucleus incertus) it was “++”; in assay [2] (Brain stem: Periaqueductal gray area), “++”; in assay [2] (Brain stem: Spinal trigeminal tract), “++”; in assay [2] (Brain stem: Superior colliculus), “+++”. For the same substance, the “[125I]R3/I5 binding sites, density” value in assay [2] (Cortex: Motor), in assay [2] (Cortex: Piriform), in assay [2] (Cortex: Somatosensory), in assay [2] (Cortex: Temporal), in assay [2] (Cortex: Visual) and in assay [2] (Habenula: Medial) was “++” throughout. Moreover, the “[125I]R3/I5 binding sites, density” value in assay [2] (Hippocampal formation: CAB field) was “+”; in assay [2] (Hippocampal formation: Dentate gyrus), “+”; in assay [2] (Hypothalamus: Lateral nucleus), “−”; in assay [2] (Hypothalamus: Paraventricular nucleus) it was “++”; in assay [2] (Hypothalamus: Supraoptic nucleus) it was “++”; in assay [2] (Olfactory System: Anterior olfactory nucleus) it was “+++”. Moreover, the “[125I]R3/I5 binding sites, density” value is reported as “+++” in assay [2] (Olfactory System: Olfactory bulb); “+” in assay [2] (Septal region: Lateral); “++” in assay [2] (Thalamus: Centro lateral); “++” in assay [2] (Thalamus: Centro medial); “++” in assay [2] (Thalamus: Paraventricular). The “binding to LGR7, in words” value with LGR7 is “did not demonstrate significant binding to LGR7”. Moreover, in the assay with GPCR135 (in presence of 1 uM unlabeled relaxin-3), the “non-specific binding, in words” value is “lower non-specific binding than [^125I]-relaxin-3”. For the same substance, the “binding to GPCR135 expressing cells, in words” value with GPCR135 (radioligand 100 pM) is “high affinity”.
